In assay [1] the test system is formalin-induced nociception. In words: Formalin test on the rat (second phase). In kind it is in vivo. Conditions: late phase. The procedure: The experiments for determining the antinociceptive action of the compounds of formula I according to the invention were performed in the formalin test on male rats (Sprague-Dawley, 150-170 g).
In the formalin test a distinction is made between the first (early) phase (0-15 min after the formalin injection) and the second (late) phase (15-60 min after the formalin injection) (D. Dubuisson, S. G. Dennis, Pain, 4, 161-174 (1977)). The early phase represents a model for acute pain as a direct reaction to the formalin injection, while the late phase is regarded as a model for persistent (chronic) pain (T. J. Coderre, J. Katz, A. L. Vaccarino, R. Melzack, Pain, vol. 52, p. 259, 1993). […]
A single subcutaneous formalin injection (50 μl, 5%) in the dorsal side of the right back paw of free-moving experimental animals induced a nociceptive reaction which is represented by the following behavioral parameters: lifting and holding of the affected paw (score 1), shaking or twitching (score 2), licking and biting (score 3). The differing modes of behavior triggered by the formalin injection were recorded continuously by observing the animals in the late phase of the formalin test, and differently weighted in an evaluation. Normal behavior, where the animal distributes its weight evenly over all four paws, was recorded as a score of 0. […]

Another assay concerns AMPA receptor channels. The assay is described as follows: AMPA-induced ionic fluxes on RNA-injected Xenopus oocytes (two-electrode voltage clamp). Conditions: 10 μmol/l compound, AMPA 100 μmol/l, n = 2. The format is cell-based, rat.
For assay [2], the target named is T1, glycine binding site of the NMDA receptor channel (Rattus norvegicus, UniProt P35439).
T1 construct: from tissue; host or cells: rat brain cortex and hippocampus membrane homogenate (male Wistar rats)
The assay is described as follows: Receptor binding (glycine binding site of the NMDA receptor channel), (3H)-MDL 105.519 displacement on brain membrane homogenates. Conditions: for Displacement (%, 10 μmol/l): displacement of (3H)-MDL 105.519 at 10 μmol/l of substance; for Ki: rat cortex/hippocampus membranes, 1 nmol/l (3H)-MDL 105.519, mean of 3 independent experiments. Here is the method: Receptor binding (glycine binding site of the NMDA receptor channel)
The tests for determining the affinity of the compounds of formula I according to the invention for the glycine binding site of the NMDA receptor channel were carried out on brain membrane homogenates (homogenate of the cortex and hippocampus areas of the brain of male rats, Wistar strain) [B. M. Baron, B. W. Siegel, B. L. Harrison, R. S. Gross, C. Hawes and P. Towers, Journal Of Pharmacology and Experimental Therapeutics, vol. 279, p. 62, 1996].
For this purpose, the cortex and hippocampus were freed without cutting from freshly removed rat brains, homogenized in 5 mmol/l TRIS acetate buffer, 0.32 mol/l sucrose, pH 7.4 (10 ml/g of fresh weight), using a Potter homogenizer (Braun/Melsungen, 10 piston strokes at 500 rpm), with ice cooling, and then centrifuged for 10 minutes at 1000 g and 4° C. The first supernatant was collected and the sediment was homogenized again with 5 mmol/l TRIS acetate buffer, 0.32 mol/l sucrose, pH 7.4 (5 ml/g of original fresh weight), using the Potter homogenizer (10 piston strokes at 500 rpm), with ice cooling, and centrifuged for 10 minutes at 1000 g and 4° C. The resulting supernatant was combined with the supernatant from the first centrifugation and centrifuged at 17,000 g for 20 minutes at 4° C. The supernatant after this centrifugation was discarded and the membrane sediment was taken up with 5 mmol/l TRIS acetate buffer, pH 8.0 (20 ml/g of original fresh weight), and homogenized with 10 piston strokes at 500 rpm.
The membrane homogenate was then incubated for 1 hour at 4° C. and centrifuged for 30 minutes at 50,000 g and 4° C. The supernatant was discarded and the centrifuge tube containing the membrane sediment was sealed with Parafilm and frozen for 24 hours at −20° C. On the following day the membrane sediment was thawed, taken up with ice-cold 5 mmol/l TRIS acetate buffer, 0.1% saponin (w/v), pH 7.0 (10 ml/g of original fresh weight), homogenized with 10 piston strokes at 500 rpm and then centrifuged for 20 minutes at 50,000 g and 4° C. The resulting supernatant was discarded and the sediment was taken up in a small volume with 5 mmol/l TRIS acetate buffer, pH 7.0 (approximately 2 ml/g of original fresh weight), and homogenized again with 10 piston strokes at 500 rpm. After determination of the protein content, the membrane homogenate was adjusted to a protein concentration of 10 mg protein/ml with 5 mmol/l TRIS acetate buffer, pH 7.0, and frozen in aliquots until tested.
For the receptor binding test, aliquots were thawed, diluted to 1:10 with 5 mmol/l TRIS acetate buffer, pH 7.0, homogenized with 10 piston strokes at 500 rpm using the Potter homogenizer (10 piston strokes at 500 rpm), with ice cooling, and centrifuged for 60 minutes at 55,000 g and 4° C. […]
In the binding test, 50 mmol/l TRIS acetate buffer, pH 7.0, was used as the buffer and 1 nmol/l (^3H)-MDL 105.519 (B. M. Baron et al., 1996) was used as the radioactive ligand. The proportion of non-specific binding was determined in the presence of 1 mmol/l glycine.
In other preparations the compounds according to the invention were added in concentration series and the displacement of the radioactive ligand from its specific binding to the glycine binding site of the NMDA receptor channel was measured. […]

Usually Ki stands for the equilibrium dissociation constant of an inhibitor or competing ligand from its target.

As to `O=C(O)C1Nc2cc(Cl)cc(Cl)c2C2C=CCC12` (centres unmarked) [Example 1, 7,9-Dichloro-3a,4,5,9b-tetrahydro-3H-cyclopenta [c]quinoline-4-carboxylic acid], the “% inhibition of the formalin-induced nociception” value in assay [1] (i.p., 21.5 mg/kg) was 64.5%. The “AMPA-induced ionic fluxes Inhibition at 10 μmol/l of the compounds according to the invention” value in the assay with AMPA receptor channels was 5.4% (n = 2).

As for `O=C([O-])C1Nc2cc(Cl)cc(Cl)c2C2C=CCC12.[Na+]` (centres unmarked) [Example 55, 7,9-Dichloro-3a,4,5,9b-tetrahydro-3H-cyclopenta [c]quinoline-4-carboxylate; sodium salt], the “% inhibition of the formalin-induced nociception” value in assay [1] (i.v., 68.1 mg/kg) came out at 56%. In addition, in assay [2], the “Displacement (%, 10 μmol/l)” value was 90% and affinity was put at a Ki of 350 nM.

As for `O=C([O-])C1Nc2cc(Cl)cc(Cl)c2C2CCCC12.[Na+]` (centres unmarked) [Example 54, 7,9-Dichloro-2,3,3a,4,5,9b-hexahydro-1H-cyclopenta [c]quinoline-4-carboxylate; sodium salt], in assay [2], the “Displacement (%, 10 μmol/l)” value was 97%.

Take `O=C(O)C1Nc2ccc(Cl)cc2C2C=CCC12` (centres unmarked) [Example 2, 8-Chloro-3a,4,5,9b-tetrahydro-3H-cyclopenta [c]quinoline-4-carboxylic acid]: in assay [2], the “Displacement (%, 10 μmol/l)” value stood at 100% and the Ki was determined as 300 nM.

(Values after US20040224969A1, “Salts of substituted 1,2,3,4-tetrahydroquinoline-2-carboxylic acid compounds” (Gruenenthal GmbH, priority 2001, published 2004).)
